Data published in patent publication US11591341B2 (ALIGOS THERAPEUTICS, INC., priority 2019, dated 2023).

System: HBV
Experiment: HBV-DNA Antiviral Assay Using HepG2.117 Cells (intracellular HBV DNA by qPCR)
Assay type: cell-based, hepatitis B virus (genotype D)
Details: Hepatitis B virus, HepG2.117
Procedure, shortened: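 HepG2.117 cells (genotype D HBV, Tet-off) were induced by doxycycline withdrawal and treated for 3 days with 9 concentrations in 4-fold dilution, 2% DMSO final. Intracellular HBV DNA was measured by qPCR against a standard curve, with ATPlite viability read in parallel. EC50, EC90 and CC50 came from fits against the DMSO control.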

Structure (SMILES)	EC50
C[C@@H](NC(=O)c1c2n(c(=O)n1-c1ccc(OCC(F)(F)F)cc1)CCN(C(=O)c1ccc(Br)c(Cl)c1)C2)c1cccc2nccnc12 (stereo in doubt) [Example 385, 7-(4-bromo-3-chloro-benzoyl)-3-oxo-N-[rac-(1R)-1-quinoxalin-5-ylethyl]-2-[4-(2,2,2-trifluoroethoxy)phenyl]-6,8-dihydro-5H-imidazo[1,5-a]pyrazine-1-carboxamide]	100 to 500 nM
C[C@@H](NC(=O)c1c2n(c(=O)n1-c1ccc(-n3cccn3)cc1)CCN(C(=O)c1ccc(Br)c(Cl)c1)C2)c1ccccc1F (stereo in doubt) [Example 405, 7-(4-bromo-3-chloro-benzoyl)-3-oxo-2-(4-pyrazol-1-ylphenyl)-N-[rac-(1R)-1-(2-fluorophenyl)ethyl]-6,8-dihydro-5H-imidazo[1,5-a]pyrazine-1-carboxamide]	< 100 nM
C[C@H](NC(=O)c1c2n(c(=O)n1-c1ccc(-n3cccn3)cc1)CCN(C(=O)c1ccc(Br)c(Cl)c1)C2)c1ccccc1F (stereo in doubt) [Example 409, 7-(4-bromo-3-chloro-benzoyl)-3-oxo-2-(4-pyrazol-1-ylphenyl)-N-[rac-(1S)-1-(2-fluorophenyl)ethyl]-6,8-dihydro-5H-imidazo[1,5-a]pyrazine-1-carboxamide]	500 to 5000 nM
C[C@H]1Cn2c(c(C(=O)NCc3ccccc3-n3cccn3)n(-c3ccc(OC4CC4)cc3)c2=O)CN1C(=O)c1ccc(Br)c(Cl)c1 (stereo in doubt) [Example 438, rac-(6S)-7-(4-bromo-3-chloro-benzoyl)-2-[4-(cyclopropoxy)phenyl]-6-methyl-3-oxo-N-[(2-pyrazol-1-ylphenyl)methyl]-6,8-dihydro-5H-imidazo[1,5-a]pyrazine-1-carboxamide]	< 100 nM
C[C@@H]1Cn2c(c(C(=O)NCc3ccccc3-n3cccn3)n(-c3ccc(OC4CC4)cc3)c2=O)CN1C(=O)c1ccc(Br)c(Cl)c1 (stereo in doubt) [Example 439, rac-(6R)-7-(4-bromo-3-chloro-benzoyl)-2-[4-(cyclopropoxy)phenyl]-6-methyl-3-oxo-N-[(2-pyrazol-1-ylphenyl)methyl]-6,8-dihydro-5H-imidazo[1,5-a]pyrazine-1-carboxamide]	100 to 500 nM
C[C@@H]1Cn2c(c(C(=O)NCc3ccccc3-n3cncn3)n(-c3ccc(OC4CC4)cc3)c2=O)CN1C(=O)c1ccc(Br)c(Cl)c1 (stereo in doubt) [Example 447, rac-(6R)-7-(4-bromo-3-chloro-benzoyl)-2-[4-(cyclopropoxy)phenyl]-6-methyl-3-oxo-N-[[2-(1,2,4-triazol-1-yl)phenyl]methyl]-6,8-dihydro-5H-imidazo[1,5-a]pyrazine-1-carboxamide]	100 to 500 nM
C[C@H]1Cn2c(c(C(=O)NCc3ccccc3-n3cncn3)n(-c3ccc(OC4CC4)cc3)c2=O)CN1C(=O)c1ccc(Br)c(Cl)c1 (stereo in doubt) [Example 448, rac-(6S)-7-(4-bromo-3-chloro-benzoyl)-2-[4-(cyclopropoxy)phenyl]-6-methyl-3-oxo-N-[[2-(1,2,4-triazol-1-yl)phenyl]methyl]-6,8-dihydro-5H-imidazo[1,5-a]pyrazine-1-carboxamide]	< 100 nM
COc1ccc(CNC(=O)c2c3n(c(=O)n2CCc2ccccc2)CCN(C(=O)c2ccc(Br)c(Cl)c2)C3)cc1 [Example 15, 7-(4-bromo-3-chlorobenzoyl)-N-[(4-methoxyphenyl)methyl]-3-oxo-2-(2-phenylethyl)-5H,6H,8H-imidazo[1,5-a]pyrazine-1-carboxamide]	> 5000 nM
COc1ccc(CNC(=O)c2c3n(c(=O)n2-c2cccc(OC)c2)CCN(C(=O)c2ccc(Br)c(Cl)c2)C3)cc1 [Example 21, 7-(4-bromo-3-chloro-benzoyl)-2-(3-methoxyphenyl)-N-[(4-methoxyphenyl)methyl]-3-oxo-6,8-dihydro-5H-imidazo[1,5-a]pyrazine-1-carboxamide]	500 to 5000 nM
O=C(NCc1ccccc1)c1c2n(c(=O)n1-c1ccc(F)cc1)CCN(C(=O)c1ccc(Br)c(Cl)c1)C2 [Example 22, N-benzyl-7-(4-bromo-3-chloro-benzoyl)-2-(4-fluorophenyl)-3-oxo-6,8-dihydro-5H-imidazo[1,5-a]pyrazine-1-carboxamide]	500 to 5000 nM
O=C(NCc1ccccc1)c1c2n(c(=O)n1-c1cccc(F)c1)CCN(C(=O)c1ccc(Br)c(Cl)c1)C2 [Example 23, N-benzyl-7-(4-bromo-3-chloro-benzoyl)-2-(3-fluorophenyl)-3-oxo-6,8-dihydro-5H-imidazo[1,5-a]pyrazine-1-carboxamide]	500 to 5000 nM
COc1ccc(-n2c(C(=O)NCc3ccccc3)c3n(c2=O)CCN(C(=O)c2ccc(Br)c(Cl)c2)C3)cc1 [Example 24, N-benzyl-7-(4-bromo-3-chloro-benzoyl)-2-(4-methoxyphenyl)-3-oxo-6,8-dihydro-5H-imidazo[1,5-a]pyrazine-1-carboxamide]	100 to 500 nM
NC(=O)c1ccc(-n2c(C(=O)NCc3ccccc3)c3n(c2=O)CCN(C(=O)c2ccc(Br)c(Cl)c2)C3)cc1 [Example 25, N-benzyl-7-(4-bromo-3-chloro-benozyl)-2-(4-carbamoylphenyl)-3-oxo-6,8-dihydro-5H-imidazo[1,5-a]pyrazine-1-carboxamide]	> 5000 nM
O=C(NCc1ccccc1)c1c2n(c(=O)n1-c1ccc(Cl)cc1)CCN(C(=O)c1ccc(Br)c(Cl)c1)C2 [Example 26, N-benzyl-7-(4-bromo-3-chloro-benzoyl)-2-(4-chlorophenyl)-3-oxo-6,8-dihydro-5H-imidazo[1,5-a]pyrazine-1-carboxamide]	500 to 5000 nM
CN(Cc1ccccc1)C(=O)c1c2n(c(=O)n1-c1ccccc1)CCN(C(=O)c1ccc(Br)c(Cl)c1)C2 [Example 27, N-benzyl-7-(4-bromo-3-chloro-benzoyl)-N-methyl-3-oxo-2-phenyl-6,8-dihydro-5H-imidazo[1,5-a]pyrazine-1-carboxamide]	500 to 5000 nM
O=C(NCCc1ccccc1)c1c2n(c(=O)n1-c1ccccc1)CCN(C(=O)c1ccc(Br)c(Cl)c1)C2 [Example 28, 7-(4-bromo-3-chloro-benzoyl)-3-oxo-2-phenyl-N-(2-phenylethyl)-6,8-dihydro-5H-imidazo[1,5-a]pyrazine-1-carboxamide]	500 to 5000 nM
O=C(NCc1ccccc1)c1c2n(c(=O)n1-c1cccc(Cl)c1)CCN(C(=O)c1ccc(Br)c(Cl)c1)C2 [Example 29, N-benzyl-7-(4-bromo-3-chloro-benzoyl)-2-(3-chlorophenyl)-3-oxo-6,8-dihydro-5H-imidazo[1,5-a]pyrazine-1-carboxamide]	500 to 5000 nM
CC(C)(NC(=O)c1c2n(c(=O)n1-c1ccccc1)CCN(C(=O)c1ccc(Br)c(Cl)c1)C2)c1ccccc1 [Example 30, 7-(4-bromo-3-chloro-benzoyl)-N-(1-methyl-1-phenyl-ethyl)-3-oxo-2-phenyl-6,8-dihydro-5H-imidazo[1,5-a]pyrazine-1-carboxamide]	> 5000 nM
O=C(NC1(c2ccccc2)CC1)c1c2n(c(=O)n1-c1ccccc1)CCN(C(=O)c1ccc(Br)c(Cl)c1)C2 [Example 31, 7-(4-bromo-3-chloro-benzoyl)-3-oxo-2-phenyl-N-(1-phenylcyclopropyl)-6,8-dihydro-5H-imidazo[1,5-a]pyrazine-1-carboxamide]	> 5000 nM
COc1ccc(CNC(=O)c2c3n(c(=O)n2-c2ccccc2)CCN(C(=O)c2ccc(Br)c(Cl)c2)C3)cc1OC [Example 32, 7-(4-bromo-3-chloro-benzoyl)-N-[(3,4-dimethoxyphenyl)methyl]-3-oxo-2-phenyl-6,8-dihydro-5H-imidazo[1,5-a]pyrazine-1-carboxamide]	100 to 500 nM
COc1cccc(CNC(=O)c2c3n(c(=O)n2-c2ccccc2)CCN(C(=O)c2ccc(Br)c(Cl)c2)C3)c1 [Example 33, 7-(4-bromo-3-chloro-benzoyl)-N-[(3-methoxyphenyl)methyl]-3-oxo-2-phenyl-6,8-dihydro-5H-imidazo[1,5-a]pyrazine-1-carboxamide]	100 to 500 nM
O=C(NCc1ccccc1)c1c2n(c(=O)n1-c1ccccc1)CCN(C(=O)c1ccc(Cl)c(Cl)c1)C2 [Example 34, N-benzyl-7-(3,4-dichlorobenzoyl)-3-oxo-2-phenyl-6,8-dihydro-5H-imidazo[1,5-a]pyrazine-1-carboxamide]	500 to 5000 nM
NC(=O)c1cccc(-n2c(C(=O)NCc3ccccc3)c3n(c2=O)CCN(C(=O)c2ccc(Br)c(Cl)c2)C3)c1 [Example 35, N-benzyl-7-(4-bromo-3-chloro-benzoyl)-2-(3-carbamoylphenyl)-3-oxo-6,8-dihydro-5H-imidazo[1,5-a]pyrazine-1-carboxamide]	> 5000 nM
CNC(=O)c1ccc(-n2c(C(=O)NCc3ccccc3)c3n(c2=O)CCN(C(=O)c2ccc(Br)c(Cl)c2)C3)cc1 [Example 36, N-benzyl-7-(4-bromo-3-chloro-benzoyl)-2-[4-(methylcarbamoyl)phenyl]-3-oxo-6,8-dihydro-5H-imidazo[1,5-a]pyrazine-1-carboxamide]	> 5000 nM
COc1ccc(CNC(=O)c2c3n(c(=O)n2-c2ccccc2)CCN(C(=O)c2ccc(Br)c(Cl)c2)C3)c(C)c1 [Example 39, 7-(4-bromo-3-chloro-benzoyl)-N-[(4-methoxy-2-methyl-phenyl)methyl]-3-oxo-2-phenyl-6,8-dihydro-5H-imidazo[1,5-a]pyrazine-1-carboxamide]	100 to 500 nM
COc1ccc(CNC(=O)c2c3n(c(=O)n2-c2ccccc2)CCN(C(=O)c2ccc(Br)c(Cl)c2)C3)c(F)c1 [Example 40, 7-(4-bromo-3-chloro-benzoyl)-N-[(2-fluoro-4-methoxy-phenyl)methyl]-3-oxo-2-phenyl-6,8-dihydro-5H-imidazo[1,5-a]pyrazine-1-carboxamide]	100 to 500 nM
COc1cccc(-n2c(C(=O)NCc3ccccc3)c3n(c2=O)CCN(C(=O)c2ccc(Br)c(Cl)c2)C3)c1 [Example 41, N-benzyl-7-(4-bromo-3-chloro-benzoyl)-2-(3-methoxyphenyl)-3-oxo-6,8-dihydro-5H-imidazo[1,5-a]pyrazine-1-carboxamide]	500 to 5000 nM
